# Laboratory results taken from US8288541B2, “Piperazine amide derivatives” (Hoffmann-La Roche Inc., priority 2007, dated 2012).
# Key:
# LXR alpha = target: T1, LXR alpha (Homo sapiens, UniProt Q13133); experiment: Radioligand binding assay (SPA), LXR alpha LBD; details: LXRα-LBD, read-out: LXRalpha Binding IC50
# T1 construct: human LXR alpha (aa 164 to 447); unnamed tag ('tagged versions'); made in house; host or cells: E. coli BL21 (pLysS)
# T1 sequence (Q13133 164-447): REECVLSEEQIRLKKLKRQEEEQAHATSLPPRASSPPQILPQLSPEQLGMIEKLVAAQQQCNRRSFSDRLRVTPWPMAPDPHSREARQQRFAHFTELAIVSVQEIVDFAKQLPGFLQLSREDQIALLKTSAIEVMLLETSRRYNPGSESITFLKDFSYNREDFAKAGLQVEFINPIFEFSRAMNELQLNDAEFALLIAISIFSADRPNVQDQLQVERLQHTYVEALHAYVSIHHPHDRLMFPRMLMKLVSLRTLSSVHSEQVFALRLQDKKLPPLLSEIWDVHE
# Experimental: (§1) The following tests were carried out in order to determine the activity of the compounds of the present invention. Background information on the performed assays can be found in: Nichols J S et al. “Development of a scintillation proximity assay for peroxisome proliferator-activated receptor gamma ligand binding domain”, Anal Biochem. 1998, 257: 112-119.
# (§2) Mammalian expression vectors were constructed to express full-length human LXR alpha and LXR beta. Bacterial expression vectors were constructed to produce tagged versions of the ligand binding domains (LBD) of human LXR alpha (aa 164 to 447) and human LXR beta (aa 155 to 460). To accomplish this, the portions of the sequences encoding the LBDs were amplified from the full-length clones by PCR and then subcloned into the plasmid vectors. Final clones were verified by DNA sequence analysis (Willy et al., Genes Dev. 1995, 9:1033-45; Song et al., Proc Natl Acad Sci USA. 1994, 91:10809-13).
# (§3) Induction, expression, and purification of LBD proteins were performed in E. coli strain BL21 (pLysS) cells by standard methods (Ref: Current Protocols in Molecular Biology, Wiley Press, edited by Ausubel et al).
# (§4) Radioligand Binding Assay
# (§5) LXR alpha and LXR beta receptor binding were assayed in buffer consisting of 50 mM HEPES, pH 7.4, 10 mM NaCl, 5 mM MgCl2. For each 96-well reaction, 500 ng of LXRα-LBD or 700 ng of LXR beta-LBD proteins were bound to 80 μg or 40 μg SPA beads respectively, in a final volume of 50 μl by shaking. The resulting slurry was incubated for 1 h at RT and centrifuged for 2 min at 1300×g. The supernatant containing unbound protein was removed, and the semi-dry pellet containing the receptor-coated beads was re-suspended in 50 μl of buffer. […] All binding assays were performed in 96-well plates and the amount of bound ligand was measured on a Packard TopCount using OptiPlates (Packard). Dose response curves were measured within a range of concentration from 10^−10 M to 10^−4 M.
# LXR beta = target: T2, LXR beta (Homo sapiens, UniProt P55055); experiment: Radioligand binding assay (SPA), LXR beta LBD; details: read-out: LXRbeta Binding IC50
# T2 construct: human LXR beta (aa 155 to 460); unnamed tag ('tagged versions'); made in house; host or cells: E. coli BL21 (pLysS)
# T2 sequence (P55055 155-460): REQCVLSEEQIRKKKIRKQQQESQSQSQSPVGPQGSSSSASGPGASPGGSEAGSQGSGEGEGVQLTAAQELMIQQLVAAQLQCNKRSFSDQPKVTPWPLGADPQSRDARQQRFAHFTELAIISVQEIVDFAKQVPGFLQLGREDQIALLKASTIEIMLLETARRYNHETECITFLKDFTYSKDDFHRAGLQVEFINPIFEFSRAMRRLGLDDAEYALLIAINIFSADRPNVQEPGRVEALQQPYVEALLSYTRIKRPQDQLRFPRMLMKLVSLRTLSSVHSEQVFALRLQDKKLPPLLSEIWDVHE
# Experimental: as §1, §2, §3, §4, §5
IC50 (LXR alpha),IC50 (LXR beta),melting point,SMILES
15.6 µM,2.8 µM,–,"Cc1ccc(Cl)cc1N1CCN(C(=O)[C@@H]2CN(S(C)(=O)=O)CC[C@@H]2c2ccc(F)cc2F)CC1 (single isomer, unassigned) [Example 87, [4-(5-Chloro-2-methyl-phenyl)-piperazin-1-yl]-[(3S,4S) or (3R,4R)-4-(2,4-difluoro-phenyl)-1-methanesulfonyl-piperidin-3-yl]-methanone]"
–,–,192 °C,"COc1cccc(S(=O)(=O)N2CC[C@H](c3ccccc3)[C@H](C(=O)N3CCN(c4cc(C)ccc4C)CC3)C2)c1 (relative stereo) [Example 42, Cis-[4-(2,5-Dimethyl-phenyl)-piperazin-1-yl]-[-1-(3-methoxy-benzenesulfonyl)-4-phenyl-piperidin-3-yl]-methanone]"
4.1 µM,0.77 µM,–,"COc1cccc(S(=O)(=O)N2CCN(c3ccccc3)C(C(=O)N3CCN(c4cc(C)ccc4C)CC3)C2)c1 (stereo not shown) [Example 8, [4-(2,5-Dimethyl-phenyl)-piperazin-1-yl]-[4-(3-methoxy-benzenesulfonyl)-1-phenyl-piperazin-2-yl]-methanone]"
18 µM,0.72 µM,–,"Cc1cc(F)ccc1N1CCN(S(=O)(=O)c2cccc(Cl)c2)CC1C(=O)N1CCN(c2cc(Cl)ccc2Cl)CC1 (stereo not shown) [Example 4, [4-(3-Chloro-benzenesulfonyl)-1-(4-fluoro-2-methyl-phenyl)-piperazin-2-yl]-[4-(2,5-dichloro-phenyl)-piperazin-1-yl]-methanone]"
